Data published in patent US11634419B2, “Dimethyl amino azetidine amides as JAK inhibitors” (THERAVANCE BIOPHARMA R&D IP, LLC, priority 2018, dated 2023).

Legend:
Lung S9 metabolism = assay type: in vitro ADME, human; settings: for Compound Remaining at 60 min (%): human lung S9, 1 μM compound, 1 mg/mL S9 protein, NADPH and PAPS; for Sulfate Appearance: qualitative, O-sulfate metabolite peak in human lung S9
Method: The time 0, 15, 30, and 60 minute samples were analyzed for parent compound by high resolution LC-MS/MS. Lung S9 fractions from human (lot 1410245) were purchased from XenoTech LLC (Lenexa, Kans.). NADPH (Sigma Aldrich, N1630) and 3-phosphoadenosine 5-phosphosulfate (PAPS) (Sigma Aldrich, A1651) were purchased from Sigma Aldrich (St. Louis, Mo.). Acetonitrile and water were obtained from VWR (Radnor, Pa.) and were of HPLC grade or better. Raloxifene and formic acid was purchased from Sigma Aldrich (St. Louis, Mo.). Lung S9 incubations were performed in a water bath at 37° C. in a 96-well polypropylene plate. […] Louis, Mo.), 3 mM magnesium chloride (Sigma Aldrich, M1028) and in the presence of 100 μM PAPS (Sigma-Aldrich, St. […] Incubation volumes consisted of 400 μL and time points were taken at 0, 15, 30, and 60 minutes by the removal of a 70 μL aliquot and dilution into 140 μL acetonitrile (0% formic acid). All samples were centrifuged at 2250 g for 10 minutes at 5° C. Supernatant (50 μL) was taken from the centrifuged samples and diluted into 100 μL HPLC water containing internal standard. The samples were run on a Dionex Ultimate 3000 Auto sampler and analyzed using a Thermo Q-Exactive High Resolution Mass Spectrometer (Thermo, Waltham, Mass.) in Full Scan mode in conjunction with an Atlantis T3 column 3 μM−2.1×50 mm (Waters Inc., 186003717). Mobile Phase A consisted of Water+0.2% formic acid and Mobile Phase B consisted of acetonitrile+0.2% formic acid. Peak integration was accomplished using Gubbs GMSU software (Gubbs Inc., Alpharetta, Ga.). For each sample, peak area ratios were calculated by dividing the analyte peak area by the internal standard peak area. For each incubation, the peak area ratios of the analytes in each t0 was set to 100%, and the peak areas ratios from the 60 minute samples were converted to percentages remaining relative to the corresponding t0. Determination of sulfate metabolite formation was made qualitatively by observation of early-eluting peak in the parent ion channel which, based on historical internal data, corresponded to the O-sulfate metabolite of each parent compound.

human JAK1 = human JAK1 (Homo sapiens (Human), UniProt P23458); assay: Co-crystal structure with JAK1; settings: resolution 2.28 Å
human JAK1, sequence (P23458 whole entry): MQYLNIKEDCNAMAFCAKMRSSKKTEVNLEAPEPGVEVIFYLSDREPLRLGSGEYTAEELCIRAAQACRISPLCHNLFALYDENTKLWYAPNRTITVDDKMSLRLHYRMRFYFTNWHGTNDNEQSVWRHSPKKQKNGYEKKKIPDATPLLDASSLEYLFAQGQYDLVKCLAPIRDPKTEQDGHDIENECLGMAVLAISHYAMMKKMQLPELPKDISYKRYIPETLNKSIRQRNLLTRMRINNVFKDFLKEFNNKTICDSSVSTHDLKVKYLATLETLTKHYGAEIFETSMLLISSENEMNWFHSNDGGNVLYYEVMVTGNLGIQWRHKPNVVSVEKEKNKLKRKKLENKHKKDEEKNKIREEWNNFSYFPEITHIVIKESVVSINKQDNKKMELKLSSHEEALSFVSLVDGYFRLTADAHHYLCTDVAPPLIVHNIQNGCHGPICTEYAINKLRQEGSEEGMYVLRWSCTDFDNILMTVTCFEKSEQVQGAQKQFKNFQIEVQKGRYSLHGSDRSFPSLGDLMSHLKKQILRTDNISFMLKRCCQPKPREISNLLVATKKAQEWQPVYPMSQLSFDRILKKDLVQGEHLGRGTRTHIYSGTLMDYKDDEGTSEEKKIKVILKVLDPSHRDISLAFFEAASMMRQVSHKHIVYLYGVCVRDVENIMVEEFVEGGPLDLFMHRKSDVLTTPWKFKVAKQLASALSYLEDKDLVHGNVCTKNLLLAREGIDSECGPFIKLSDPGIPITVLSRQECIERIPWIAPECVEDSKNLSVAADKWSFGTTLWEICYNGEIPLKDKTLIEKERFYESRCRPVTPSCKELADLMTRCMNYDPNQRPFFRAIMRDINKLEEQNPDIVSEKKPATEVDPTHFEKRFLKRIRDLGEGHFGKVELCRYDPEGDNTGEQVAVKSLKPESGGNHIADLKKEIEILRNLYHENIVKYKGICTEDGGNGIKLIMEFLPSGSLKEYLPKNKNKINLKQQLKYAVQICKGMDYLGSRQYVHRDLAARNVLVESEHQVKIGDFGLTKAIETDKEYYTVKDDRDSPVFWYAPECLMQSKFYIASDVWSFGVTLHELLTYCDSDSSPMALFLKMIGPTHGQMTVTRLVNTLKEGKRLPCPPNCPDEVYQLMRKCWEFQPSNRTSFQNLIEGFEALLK
Text: A co-crystal structure was obtained of compound C-1 bound to human JAK1 at a resolution of 2.28 Å. […] Seven specific hydrogen bonding interactions were identified based upon a distance of 3.5 Å or less between donor and acceptor atoms. Of particular note, a hydrogen bonding interaction was identified between the carbonyl of the exocyclic amide of the compound of C-1 and the sidechain of Arg879 of JAK1. A similar interaction can be expected for the compounds of the invention.

[1] = Pharmacokinetics in plasma and lung in mouse; assay type: in vivo; settings: single oral aspiration, 0.2 mg/mL, 50 μL
Method: Plasma and lung concentrations of test compounds and ratios thereof were determined in the following manner. BALB/c mice from Charles River Laboratories were used in the assay. Test compounds were individually formulated in 20% propylene glycol in pH 4 citrate buffer at a concentration of 0.2 mg/mL and 50 μL of the dosing solution was introduced into the trachea of a mouse by oral aspiration. At various time points (typically 0.167, 2, 6, 24 hr) post dosing, blood samples were removed via cardiac puncture and intact lungs were excised from the mice.

[2] = test system: IFNγ secretion in mixed lymphocyte reaction; assay: Inhibition of IFNγ secretion in a mixed lymphocyte reaction assay; assay type: cell-based, human; settings: summary statement
Method: The mixed lymphocyte reaction assay is an in-vitro assay that mimics transplant rejection. T cells from one donor are cultured with allogeneic dendritic cells from another donor. This reaction induces a cellular immune response such as IFNγ secretion. CD14+ monocytes were isolated from human whole blood (Stanford blood center) of donor A using a ficoll gradient and magnetic seperation (CD14 microbeads, Miltenyi). […] Cells were harvested, washed with media, re-suspended to 400,000 cells/ml in media and plated at 10,000 cells/well/25 μl. CD4+ T cells were freshly isolated from human whole blood (Stanford blood center) of donor B using a ficoll gradient and magnetic separation (CD4+ T cell isolation kit, Miltenyi). T cells were re-suspended to 4,000,000 cells/ml in RPMI (Life Technologies) supplemented with 10% Fetal Bovine Serum (FBS, Life Technologies), 2 mM Glutamax (Life Technologies), 25 mM HEPES (Life Technologies) and 1× Pen/Strep (Life Technologies). CD4+ T cells were mixed with the dendritic cells at 100,000 cells/well/25p. […] On day 5, supernatants were collected and measured for interferon gamma (INFγ) using enzyme linked immunosorbent assay (ELISA). Percent inhibition was determined by compound inhibitory potency against IFNγ secretion compared to vehicle treated cells. […]

| Compound | Compound Remaining at 60 min (%) (Lung S9 metabolism) | Sulfate Appearance (Lung S9 metabolism) | binding site observed in co-crystal structure (human JAK1) | Plasma AUC(0-24) [1] [ng·h/mL] | inhibition of IFNγ secretion in mixed lymphocyte reaction (in words) [2] |
| --- | --- | --- | --- | --- | --- |
| CCc1cc(O)ccc1-c1ccc2c(-c3nc4c([nH]3)CN(CC)[C@H](C(=O)N3CC(C)(N(C)C)C3)C4)n[nH]c2c1 [Compound 3, (S)-(3-(dimethylamino)-3-methylazetidin-1-yl)(5-ethyl-2-(6-(2-ethyl-4-hydroxyphenyl)-1H-indazol-3-yl)-4,5,6,7-tetrahydro-3H-imidazo[4,5-c]pyridin-6-yl)methanone] | 97 | Yes | – | – | – |
| CCCN1Cc2[nH]c(-c3n[nH]c4cc(-c5ccc(O)cc5CC)ccc34)nc2C[C@H]1C(=O)N1CC(N(C)C)C1 [Compound 5, (S)-(3-(dimethylamino)azetidin-1-yl)(2-(6-(2-ethyl-4-hydroxyphenyl)-1H-indazol-3-yl)-5-propyl-4,5,6,7-tetrahydro-3H-imidazo[4,5-c]pyridin-6-yl)methanone] | 96 | Yes | – | – | – |
| CCCN1Cc2[nH]c(-c3n[nH]c4cc(-c5ccc(O)cc5CC)ccc34)nc2C[C@H]1C(=O)N1CC(C)(N(C)C)C1 [Compound 6, (S)-(3-(dimethylamino)-3-methylazetidin-1-yl)(2-(6-(2-ethyl-4-hydroxyphenyl)-1H-indazol-3-yl)-5-propyl-4,5,6,7-tetrahydro-3H-imidazo[4,5-c]pyridin-6-yl)methanone] | 90 | Yes | – | – | – |
| CCc1cc(O)ccc1-c1ccc2c(-c3nc4c([nH]3)CN(CC)[C@H](C(=O)N3CC(N(C)C)C3)C4)n[nH]c2c1 [Compound 2, (S)-(3-(dimethylamino)azetidin-1-yl)(5-ethyl-2-(6-(2-ethyl-4-hydroxyphenyl)-1H-indazol-3-yl)-4,5,6,7-tetrahydro-3H-imidazo[4,5-c]pyridin-6-yl)methanone] | 98 | Yes | – | – | – |
| CCc1cc(O)ccc1-c1ccc2c(-c3nc4c([nH]3)CN(C(C)C)[C@H](C(=O)N3CC(C)(N(C)C)C3)C4)n[nH]c2c1 [Compound 4, (S)-(3-(dimethylamino)-3-methylazetidin-1-yl)(2-(6-(2-ethyl-4-hydroxyphenyl)-1H-indazol-3-yl)-5-isopropyl-4,5,6,7-tetrahydro-3H-imidazo[4,5-c]pyridin-6-yl)methanone] | 100 | Yes | – | – | – |
| CCc1cc(O)ccc1-c1ccc2c(-c3nc4c([nH]3)CN(C(C)C)[C@H](C(=O)N3CC(N(C)C)C3)C4)n[nH]c2c1 [Compound 1, (S)-(3-(dimethylamino)azetidin-1-yl)(2-(6-(2-ethyl-4-hydroxyphenyl)-1H-indazol-3-yl)-5-isopropyl-4,5,6,7-tetrahydro-3H-imidazo[4,5-c]pyridin-6-yl)methanone] | 81 | Yes | – | 943 | effectively inhibit IFNγ secretion |

More lines, main results first:

| Compound Remaining at 60 min (%) (Lung S9 metabolism) | Sulfate Appearance (Lung S9 metabolism) | binding site observed in co-crystal structure (human JAK1) | Plasma AUC(0-24) [1] [ng·h/mL] | Compound | inhibition of IFNγ secretion in mixed lymphocyte reaction (in words) [2] |
| --- | --- | --- | --- | --- | --- |
| 5 | Yes | – | – | CCc1cc(O)c(F)cc1-c1ccc2c(-c3nc4c([nH]3)CN(CC)[C@H](C(=O)N3CC(C)(N(C)C)C3)C4)n[nH]c2c1 [Compound C-3, (S)-(3-(dimethylamino)-3-methylazetidin-1-yl)(5-ethyl-2-(6-(2-ethyl-5-fluoro-4-hydroxyphenyl)-1H-indazol-3-yl)-4,5,6,7-tetrahydro-3H-imidazo[4,5-c]pyridin-6-yl)methanone, reference compound] | – |
| 5 | Yes | – | – | CCCN1Cc2[nH]c(-c3n[nH]c4cc(-c5cc(F)c(O)cc5CC)ccc34)nc2C[C@H]1C(=O)N1CC(N(C)C)C1 [Compound C-5, (S)-(3-(dimethylamino)azetidin-1-yl)(2-(6-(2-ethyl-5-fluoro-4-hydroxyphenyl)-1H-indazol-3-yl)-5-propyl-4,5,6,7-tetrahydro-3H-imidazo[4,5-c]pyridin-6-yl)methanone, reference compound] | – |
| 4 | Yes | – | – | CCc1cc(O)c(F)cc1-c1ccc2c(-c3nc4c([nH]3)CN(C(C)C)[C@H](C(=O)N3CC(C)(N(C)C)C3)C4)n[nH]c2c1 [Compound C-4, (S)-(3-(dimethylamino)-3-methylazetidin-1-yl)(2-(6-(2-ethyl-5-fluoro-4-hydroxyphenyl)-1H-indazol-3-yl)-5-isopropyl-4,5,6,7-tetrahydro-3H-imidazo[4,5-c]pyridin-6-yl)methanone, reference compound] | – |
| 6 | Yes | – | – | CCc1cc(O)c(F)cc1-c1ccc2c(-c3nc4c([nH]3)CN(CC)[C@H](C(=O)N3CC(N(C)C)C3)C4)n[nH]c2c1 [Compound C-2, (S)-(3-(dimethylamino)azetidin-1-yl)(5-ethyl-2-(6-(2-ethyl-5-fluoro-4-hydroxyphenyl)-1H-indazol-3-yl)-4,5,6,7-tetrahydro-3H-imidazo[4,5-c]pyridin-6-yl)methanone, reference compound] | – |
| 4 | Yes | – | – | CCCN1Cc2[nH]c(-c3n[nH]c4cc(-c5cc(F)c(O)cc5CC)ccc34)nc2C[C@H]1C(=O)N1CC(C)(N(C)C)C1 [Compound C-6, (S)-(3-(dimethylamino)-3-methylazetidin-1-yl)(2-(6-(2-ethyl-5-fluoro-4-hydroxyphenyl)-1H-indazol-3-yl)-5-propyl-4,5,6,7-tetrahydro-3H-imidazo[4,5-c]pyridin-6-yl)methanone, reference compound] | – |
| 6 | Yes | bind in the ATP binding site | – | CCc1cc(O)c(F)cc1-c1ccc2c(-c3nc4c([nH]3)CN(C(C)C)[C@H](C(=O)N3CC(N(C)C)C3)C4)n[nH]c2c1 [Compound C-1, (S)-(3-(dimethylamino)azetidin-1-yl)(2-(6-(2-ethyl-5-fluoro-4-hydroxyphenyl)-1H-indazol-3-yl)-5-isopropyl-4,5,6,7-tetrahydro-3H-imidazo[4,5-c]pyridin-6-yl)methanone, reference compound] | – |
